Laboratory results: PubChem BioAssay AID1963831 (Molecular Pharmacology Branch, DTP, NCI, 2024)

System: 889142-216-R-J1-PDC complex spheroid viability
Test: Anticancer human tumor 889142-216-R-J1-PDC patient-derived bladder carcinoma cell line growth inhibition [POLQ]
Conditions: for IC50: curve of first compound; for viability, T/C: stronger effect = lower value
Protocol: Multicellular complex tumor spheroid response to Polymerase (POL) inhibitors (novobiocin, ART-558, RP6685) in combination with a variety of drugs and investigational agents in selected tumor cell lines
The POL inhibitors (novobiocin, ART-558, and RP6685) were evaluated both individually and in combination with standard of care and investigational anticancer small molecules within a complex spheroid model of solid tumors. . Complex spheroids include a stromal component modeled by human endothelial cells (HUVEC) and fibroblasts modeled by human mesenchymal stem cells (MSCs). The concentration ranges selected for each drug and investigational agent were based upon clinically achievable concentrations if the clinical Cmax of the agent was known.
Compounds. The drugs and investigational agents: novobiocin (NSC847541), ART-558 (NSC835418), RP-6685 (NSC848927), peposertib (NSC802822), ceralasertib (NSC780249), elimusertib (NSC800525), camonsertib (NSC841442), AZD-1390 (NSC803789), olaparib (NSC753686), talazoparib (NSC767125), rucaparib (NSC756644), sotorasib (NSC818433), MRTX-1133 (NSC836407), SN-38 (NSC673596), topotecan (NSC609699), epotoside (NSC141540), doxorubicin (NSC123127), gemcitabine (NSC613327), 5-fluorouracil (NSC19893), paclitaxel (NSC125973), vemurafenib (NSC761431), MSA-2 (NSC828583), SN-011 (NSC837082), adavosertib (NSC754352), prexasertib (NSC758257), carboplatin (NSC241240) and oxaliplatin (NSC266046), were obtained from the National Cancer Institute (NCI) Developmental Therapeutics Program Chemical Repository (21). The FDA-approved anticancer drug set is available from the Developmental Therapeutics Program at https://dtp.cancer.gov/organization/dscb/obtaining/. […] The stock solutions were prepared in dimethyl sulfoxide (DMSO, Sigma-Aldrich, St. Louis, MO, cat. D2650), except for the platinum compounds which were prepared in saline (Quality Biological, Gaithersburg, MD, cat. 114-055-101), at 800-fold the tested concentration and stored at -70 degrees C prior to their use. All drugs and investigational agents were tested over a range starting from a high concentration at or near the clinical Cmax and decreasing in half-log increments. If the clinical Cmax for an agent had not been determined, the highest concentration tested was 10 microM, except for SN-38, which was tested at a high concentration of 1 microM.
Cell Culture. All cells were maintained in an incubator at 37 degrees C and 5% CO2 with 95% humidity. The PDC lines were cultured according to standard operating procedures established by the NCI PDMR (https://pdmr.cancer.gov). Table 3 of the manuscript, lists the cell lines along with the number of the three cell types plated to form the mct-spheroids and media for tumor cell growth. After thawing, all PDC lines, except 997537-175-T-J1-PDC and 415267-285-R-J2-PDC, were cultured in Matrigel-coated flasks prepared with a working solution of 1X Ham's F-12 nutrient mix, without supplementation (Thermo Fisher Scientific, cat. 11765054), 100 U/mL penicillin-streptomycin (Thermo Fisher Scientific, cat. 15140122), and 2.5% Matrigel (Corning Inc., Corning, NY, cat. 354248) for the first three passages. The two PDC lines 997537-175-T-J1-PDC and 415267-285-R-J2-PDC were cultured on uncoated flasks. The 857933-349-R-J2-PDC line was cultured in 6C/Colon 1B media containing advanced DMEM/F-12 (Thermo Fisher Scientific, cat. 12634028), 10 mM HEPES (Thermo Fisher Scientific, cat. 15630080), 1X GlutaMAX supplement (Thermo Fisher Scientific, cat. 35050061), 0.1 mg/mL primocin (InvivoGen, San Diego, CA, cat. ant-pm-2), 10% defined fetal bovine serum, heat inactivated (HyClone Laboratories Inc., Logan, UT, cat. SH30070.03HI), 50% L-WRN conditioned media (ATCC, cat. CRL-3276), 1.25 mM N-Acetyl-L-cysteine (Sigma-Aldrich, cat. A9165), 10 mM nicotinamide (Sigma-Aldrich, cat. N0636), 1X B-27 supplement (Thermo Fisher Scientific, cat. 17504044), 1X N-2 supplement (Thermo Fisher Scientific, cat. […]

[1] = second compound 0.0316 µM, first compound 0.0316 µM
[2] = second compound 0.0316 µM, first compound 0.1 µM
[3] = second compound 0.0316 µM, first compound 0.316 µM
[4] = second compound 0.0316 µM, first compound 1 µM
[5] = second compound 0.0316 µM, first compound 3.16 µM
[6] = second compound 0.0316 µM, first compound 10 µM
[7] = second compound 0.1 µM, first compound 0.0316 µM
[8] = second compound 0.1 µM, first compound 0.1 µM
[9] = second compound 0.1 µM, first compound 0.316 µM
[10] = second compound 0.1 µM, first compound 1 µM
[11] = second compound 0.1 µM, first compound 3.16 µM
[12] = second compound 0.1 µM, first compound 10 µM
[13] = second compound 0.316 µM, first compound 0.0316 µM
[14] = second compound 0.316 µM, first compound 0.1 µM
[15] = second compound 0.316 µM, first compound 0.316 µM
[16] = second compound 0.316 µM, first compound 1 µM
[17] = second compound 0.316 µM, first compound 3.16 µM
[18] = second compound 0.316 µM, first compound 10 µM
[19] = second compound 1 µM, first compound 0.0316 µM
[20] = second compound 1 µM, first compound 0.1 µM
[21] = second compound 1 µM, first compound 0.316 µM
[22] = second compound 1 µM, first compound 1 µM
[23] = second compound 1 µM, first compound 3.16 µM
[24] = second compound 1 µM, first compound 10 µM
[25] = second compound 3.16 µM, first compound 0.0316 µM
[26] = second compound 3.16 µM, first compound 0.1 µM
[27] = second compound 3.16 µM, first compound 0.316 µM
[28] = second compound 3.16 µM, first compound 1 µM
[29] = second compound 3.16 µM, first compound 3.16 µM
[30] = second compound 3.16 µM, first compound 10 µM
[31] = second compound 10 µM, first compound 0.0316 µM
[32] = second compound 10 µM, first compound 0.1 µM
[33] = second compound 10 µM, first compound 0.316 µM
[34] = second compound 10 µM, first compound 1 µM
[35] = second compound 10 µM, first compound 3.16 µM
[36] = second compound 10 µM, first compound 10 µM
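Also: spheroids exposed to compounds for seven days.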
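For viability, T/C in this document: 100% = DMSO vehicle control viability.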

In the case of `CC1COCCN1c1cc(-c2ccnn2C)c2ccnc(-c3ccn[nH]3)c2n1` (stereo unspecified) + COC1C(OC(N)=O)C(O)C(Oc2ccc3c(O)c(NC(=O)c4ccc(O)c(CC=C(C)C)c4)c(=O)oc3c2C)OC1(C)C, the IC50 (second compound 0.0316 µM) is reported as 213 nM, the IC50 (second compound 0.1 µM) is reported as 162 nM and the IC50 (second compound 0.316 µM) is reported as 169 nM. It also gave an IC50 (second compound 1 µM) of 293 nM, an IC50 (second compound 3.16 µM) of 337 nM and an IC50 (second compound 10 µM) of 287 nM. It also gave a viability, T/C [1] of 97.8%, a viability, T/C [2] of 56.2% and a viability, T/C [3] of 46.4%. The viability, T/C [4] was 45%, the viability, T/C [5] was 31.5% and the viability, T/C [6] was 30%. It also gave a viability, T/C [7] of 79%, a viability, T/C [8] of 53.3% and a viability, T/C [9] of 40.4%. It also gave a viability, T/C [10] of 41.7%, a viability, T/C [11] of 34.1% and a viability, T/C [12] of 25.9%. It also gave a viability, T/C [13] of 90.5%, a viability, T/C [14] of 55.5% and a viability, T/C [15] of 39.6%. For the same compound, the viability, T/C [16] was 45.2%, the viability, T/C [17] was 38.2% and the viability, T/C [18] was 28.6%. It also gave a viability, T/C [19] of 77.2%, a viability, T/C [20] of 58.6% and a viability, T/C [21] of 48%. It also gave a viability, T/C [22] of 40.9%, a viability, T/C [23] of 36.2% and a viability, T/C [24] of 25.9%. It also gave a viability, T/C [25] of 71.5%, a viability, T/C [26] of 59.5% and a viability, T/C [27] of 48.8%. It also gave a viability, T/C [28] of 42.8%, a viability, T/C [29] of 35.3% and a viability, T/C [30] of 26.4%. It also gave a viability, T/C [31] of 79%, a viability, T/C [32] of 55.8% and a viability, T/C [33] of 49.7%. For the same compound, the viability, T/C [34] was 43.6%, the viability, T/C [35] was 34.2% and the viability, T/C [36] was 27.5%.
Work on `CC1COCCN1c1cc(C2(O)CC3CCC(C2)O3)c2cnn(-c3ccn[nH]3)c2n1` (stereo unspecified) + COC1C(OC(N)=O)C(O)C(Oc2ccc3c(O)c(NC(=O)c4ccc(O)c(CC=C(C)C)c4)c(=O)oc3c2C)OC1(C)C yielded an IC50 (second compound 0.0316 µM) of 125 nM, an IC50 (second compound 0.1 µM) of 132 nM and an IC50 (second compound 0.316 µM) of 180 nM. It also gave an IC50 (second compound 1 µM) of 195 nM, an IC50 (second compound 3.16 µM) of 169 nM and an IC50 (second compound 10 µM) of 93.3 nM. For the same compound, the viability, T/C [1] was 64.3%, the viability, T/C [2] was 50.6% and the viability, T/C [3] was 40.6%. The viability, T/C [4] was 32.7%, the viability, T/C [5] was 26.2% and the viability, T/C [6] was 14.7%. The viability, T/C [7] was 69.9%, the viability, T/C [8] was 50.2% and the viability, T/C [9] was 38.6%. It also gave a viability, T/C [10] of 32.5%, a viability, T/C [11] of 27.5% and a viability, T/C [12] of 15.2%. The viability, T/C [13] was 66.4%, the viability, T/C [14] was 53.6% and the viability, T/C [15] was 40.2%. For the same compound, the viability, T/C [16] was 37.5%, the viability, T/C [17] was 33.3% and the viability, T/C [18] was 13.2%. The viability, T/C [19] was 77.4%, the viability, T/C [20] was 54.9% and the viability, T/C [21] was 42.4%. For the same compound, the viability, T/C [22] was 32.2%, the viability, T/C [23] was 29.5% and the viability, T/C [24] was 12.7%. For the same compound, the viability, T/C [25] was 64.3%, the viability, T/C [26] was 54.5% and the viability, T/C [27] was 40.5%. The viability, T/C [28] was 39.2%, the viability, T/C [29] was 25.2% and the viability, T/C [30] was 14.1%. The viability, T/C [31] was 65.2%, the viability, T/C [32] was 43.2% and the viability, T/C [33] was 39.2%. For the same compound, the viability, T/C [34] was 30.6%, the viability, T/C [35] was 30.1% and the viability, T/C [36] was 13.9%.
Work on `O=C(Nc1ccc(O)c(NS(=O)(=O)c2ccc(F)cc2)c1)c1ccc(-c2ccccc2)cc1` + COC1C(OC(N)=O)C(O)C(Oc2ccc3c(O)c(NC(=O)c4ccc(O)c(CC=C(C)C)c4)c(=O)oc3c2C)OC1(C)C yielded an IC50 (second compound 0.0316 µM) greater than 10000 nM, an IC50 (second compound 0.1 µM) greater than 10000 nM and an IC50 (second compound 0.316 µM) greater than 10000 nM. The IC50 (second compound 1 µM) was greater than 10000 nM, the IC50 (second compound 3.16 µM) was greater than 10000 nM and the IC50 (second compound 10 µM) was greater than 10000 nM. The viability, T/C [1] was 122%, the viability, T/C [2] was 98.7% and the viability, T/C [3] was 115%. For the same compound, the viability, T/C [4] was 116%, the viability, T/C [5] was 116% and the viability, T/C [6] was 67.2%. It also gave a viability, T/C [7] of 93.9%, a viability, T/C [8] of 90.7% and a viability, T/C [9] of 92.6%. The viability, T/C [10] was 108%, the viability, T/C [11] was 111% and the viability, T/C [12] was 64.7%. For the same compound, the viability, T/C [13] was 128%, the viability, T/C [14] was 110% and the viability, T/C [15] was 99.9%. The viability, T/C [16] was 125%, the viability, T/C [17] was 139% and the viability, T/C [18] was 73.8%. For the same compound, the viability, T/C [19] was 103%, the viability, T/C [20] was 115% and the viability, T/C [21] was 114%. The viability, T/C [22] was 107%, the viability, T/C [23] was 105% and the viability, T/C [24] was 75.9%. For the same compound, the viability, T/C [25] was 87.7%, the viability, T/C [26] was 108% and the viability, T/C [27] was 96.2%. For the same compound, the viability, T/C [28] was 117%, the viability, T/C [29] was 126% and the viability, T/C [30] was 73.6%. For the same compound, the viability, T/C [31] was 99.8%, the viability, T/C [32] was 103% and the viability, T/C [33] was 101%. It also gave a viability, T/C [34] of 118%, a viability, T/C [35] of 107% and a viability, T/C [36] of 63.7%.
